Patent US20220389389A1, “METHODS AND A KIT TO REPROGRAM SOMATIC CELLS” (Novoxyne LLC, priority 2019, published 2022)

Legend:
PIFs = conditions: in vitro culture; cited from earlier work
[1] = cited from earlier work
[2] = system: iPSC generation from fibroblasts; conditions: without c-Myc and Klf4; cited from earlier work
EF cells [3] = experiment: MSAIC inhibition assay with GsMTX4, PI gene messages by real time PCR; format: cell-based, mouse
Protocol: (§1) C57BL/6 male mice (4-6 weeks old) were purchased from Jackson Laboratory. Bone marrow cells and spleen cells were obtained from 4-6-week-old male C57BL/6 mice. Cells in single cell suspension were red cell-depleted before use. Bone marrow stromal cells were cultured and passaged in T75 culture flask as it was described [Torino et al., Bio-protocol 4: e1031 (2014)]. The embryonic fibroblast was prepared from 13-day fetus of C57BL/6 as described previously [Qiu et al., Bio-protocol 6: e1859 (2016)]. Cells used for the reprogramming were those cultured for 2 to 4 passage periods.
(§2) Cells were cultured in 6 well plates (10^7 cells/well) in triplicate per group. GsMTX4 dissolved in PBS was added to the concentration 5 μM in the experimental group. Sixteen hours later, cells were harvested by scraper for spleen cells and bone marrow cells, pelleted for total RNA-extraction with RNeasy (Qiagen) or Trizol (Invitrogen). For EF cells and BM stromal cells, cell culture medium was drained and directly resuspended to the cell lysis buffer in the culture wells. Extracted RNAs were subjected to cDNA synthesis (Applied Bioscience) and analyzed for the messages specific for mouse PI genes and control genes by real time PCR thereto cycler (Bio-Rad, CFX384). […]

[4] = system: bone marrow stroma cell line; experiment: as above; format: cell-based, mouse; conditions: GsMTX4, O/N culture
Protocol: as §1, §2

bone marrow cells = experiment: MSAIC inhibition assay with GsMTX4 / matrix stiffness culture, PI gene messages by real time PCR; format: cell-based, mouse; conditions: 5 μM GsMTX4, 16 hours
Protocol: as §1
(§3) Cells were cultured in 6 well plates (10^7 cells/well) in triplicate per group. GsMTX4 dissolved in PBS was added to the concentration 5 μM in the experimental group. Sixteen hours later, cells were harvested by scraper for spleen cells and bone marrow cells, pelleted for total RNA-extraction with RNeasy (Qiagen) or Trizol (Invitrogen). For EF cells and BM stromal cells, cell culture medium was drained and directly resuspended to the cell lysis buffer in the culture wells. Extracted RNAs were subjected to cDNA synthesis (Applied Bioscience) and analyzed for the messages specific for mouse PI genes and control genes by real time PCR thereto cycler (Bio-Rad, CFX384). Primers used were: Oct4 (5′: […] (SEQ ID NO:5), 3′: […] (SEQ ID NO:6), Sox2 (5′: […] (SEQ ID NO:7), 3′: […] (SEQ ID NO:8), Nanog (5′: […] ([…]), 3′: […] (SEQ ID NO:10), CFBP/α (5′: […] (SEQ ID NO:11), 3′: […] (SEQ ID NO:12), c-Myc (5′: […] (SEQ ID NO:13), 3′: TTATGCACCAGAGTTTCG (SEQ ID NO:14), RUNX1 (5′: […] (SEQ ID NO:15), 3′: […] (SEQ ID NO:16), PU1 (5′: […] (SEQ ID NO:17), 3′: […] (SEQ ID NO:18), IRF8 (5′: […] (SEQ ID NO:19), 3′: […] (SEQ ID NO:20), FOXP1 (5′: […] (SEQ ID NO:21), 3′: […] (SEQ ID NO:22), KLF4 (5′: […] (SEQ ID NO:23), 3′: […] (SEQ ID NO:24), Actin (5′: […] (SEQ ID NO:25), 3′: […] (SEQ ID NO:26), GAPDH 5′: […] (SEQ ID NO:27), 3′: […] (SEQ ID NO:28). The value of each Cq (Ct) were applied to the formula by which the message level of each specific gene (shown by the index value) was estimated in comparison to that of Actin or GAPDH housekeeping genes.
(§4) Tissue culture plates with defined elasticity surface (0.2, 4, 50 kpa) were purchased from Matrigen. To cast polyacrylamide gel in petri-dishes, 3.5 cm petri-dish was used. Each dish was loaded with 330 μL of polyacrylamide gel cocktail and promptly the size-matched drop lid (polypropylene) was placed on the top (FIG. 30). Three different elasticities of the polyacrylamide gel were prepared in the study. The ratio of [acrylamide (40%): bis-acrylamide (2%): water] was determined according from the published data [Tse and Engler, Curr. Protoc. Cell Biol. Chapt. 10 Unit 10.16 (2010)]. Those were (75:112.5:812.5) for 1.7 kpa, (100:150:750) for 3.2 kpa and (250:30:720) for 7.4 kpa. The slice of the 50 ml conical centrifuge tube caps were used for the drop caps (arrow-pointed in FIG. 30).
In experiments, mouse bone marrow cells were in vitro 37° C. cultured 16 hours in the presence of 5 μM GsMTX4. Cells were then assayed for the PI genes' messages as listed in the left of the FIG. 1. […] The presence of GsMTX4 in the culture was expected to prevent cells from sensing the strong stretch stress by MSAICs. Strikingly, the cells cultured in the presence of GsMTX4 expressed greater than 100 times of Oct4 message compared with the control cells (FIG. 1). […] 10(1): e1004079 (2014); North et al., Stem Cells. 22:158 (2004)].
The fresh bone marrow cells were cultured for 16 hours in 6 well plates with GsMTX4 (5 μM) in DMEM supplemented with 10% FBS. The messages specific for the genes listed in the left were real time PCR-characterized and presented as the relative index in comparison with the value of β-actin message. […]

spleen cells = experiment: MSAIC inhibition assay with GsMTX4, PI gene messages by real time PCR; format: cell-based, mouse
Protocol: as §1
as §3, with “The value of each Cq (Ct) were applied to the formula by which the message level of each specific gene (shown by the index value) was estimated in comparison to that of Actin or GAPDH housekeeping genes.” left out
Spleen cells were 37° C.-treated with MβCD before the in vitro culture with GsMTX4 as described in FIG. 1. ND: not detected.

Human PBMC = experiment: Nuclear reprogramming of human peripheral blood mononuclear cells; format: cell-based; conditions: 5 mM MβCD twice 20 min, then soft polyacrylamide gel culture
From the text: Human PBMC is an attractive source of somatic cells for reprogramming to stem cells by the available iPSC technology. The sampling of the peripheral blood is a common practice in the medicine and possible to obtain at the individual specific fashion. The purification of the PBMC is also a regular method by Ficol gradient centrifugation. […] 27, 10-(2018), U.S. Pat. No. 9,447,382B2]. To investigate if the methods of the current invention can apply to reprogram human PBMC into the stem cell-like cells, and also differentiate into the de novo phenotypes in vitro, experiments were conducted in which cell were treated with MβCD and then cultured on the soft polyacrylamide gel as described infula.
Human peripheral blood was corrected into the heparinized tube from left forearm vein. The blood mononuclear cells were separated using the Ficoll-Hypaque technique (density, 1.077; Pharmacia Biotech, Uppsala, Sweden). Cells were twice repeatedly 37° C. incubated for 20 min with 5 mM MβCD in DMEM, pelleted by centrifugation at 900 g at room temperature. Washed once with 37° C. warmed DMEM/F12 and resuspended in small volume complete medium (30 μl/2×10^6 cells) [DMEM/F12 (Corning), 20% knockout serum replacement (Gibco), 1% nonessential amino acids (Gibco), 5×10^−5M 2-Mercaptethanol]. Cells in the culture petri-dishes were monitored daily by microscopy and novel phenotype cells were recorded. […]

EF cells [5] = experiment: Reprogramming and differentiation culture of EF cells, microscopy and staining; format: cell-based, mouse
Protocol: as §4
Ninety minutes later drop lids were carefully removed and the gels in the dishes were washed 5 times with 3 ml of sterile water. Each aspiration of the water from the dish was gently performed with 1 ml micro pipettor. During the washing, casted acrylamide gel come off the bottom. […]
Cells were suspended in DMEM supplemented with 5 mM MβCD at the concentration of 2×10^6/ml in 15 ml centrifuge tube. […] Cells on the gel and on the dish-bottom surface were monitored daily and the remarkable phenotype cells were recorded with EVOS cell monitoring system (Thermofisher). […]

EF cells [6] = experiment: RT-PCR assay for the expression of PI genes in the reprogramming cultures of EF cells; format: cell-based, mouse
Protocol: Cells were suspended in DMEM supplemented with 5 mM MβCD at the concentration of 2×10^6/ml in 15 ml centrifuge tube. Cell suspension was incubated for 30 min at 37° C. with every 5 min gentle agitations. Washed once with 37° C. warmed DMEM/F12 and resuspended in small volume complete medium (30 μl/2×10^6 cells) [DMEM/F12 (Corning), 20% knockout serum replacement (Gibco), 1% nonessential amino acids (Gibco), 5×10^−5M 2-Mercaptethanol]. To initiate reprogramming culture on hydrogel, petri dish was added with 2.5 ml complete medium, then 30 μl of cell suspension was loaded on the hydrogel. Multiple dishes were housed in a 15 cm diameter petri dish with a water filled un-lid 6 cm petri dish. Cells on the gel and on the dish-bottom surface were monitored daily and the remarkable phenotype cells were recorded with EVOS cell monitoring system (Thermofisher). Various phenotype cells were characterized by the assays for the markers specific for the cell lineages (e.g., Oil red 0 for the adipocytes and alizarin for calcium deposited cells) as commonly available methods.
Cells derived from the MβCD-treated and hydrogel-exposed culture in petri dish were subjected to the extraction of total RNA by Trizol. cDNAs were prepared as described above and the regular PCR was performed (35 cycle) using PCR master mix (Biotool) and the primers listed above for the real time PCR assays. The PCR products were resolved using 1.5% agarose gel, Ethidium Bromide-stained and the results were acquired by Gel Documentation system (Bio-Rad).
EF cells were MβCD-treated and cultured in the hydrogel-casted petri dishes for 7 days before RNA extraction. The stiffness of the hydrogel was listed on the top of each lane. Total RNAs from spheres and dish-adhered cells were analyzed for the expression of the PI genes by RT-PCR. PCR-amplified fragments were dissolved by 1.5% agarose gel and stained by Ethidium Bromide. […]
EF cells were MβCD-treated and cultured in the petri dishes. […] The message for each PI gene was analyzed as described in FIG. 1 and shown in B.

Compound: C[S+](C)[O-] [DMSO]
- expression of PIFs (PIFs): repressed

Compound: Cc1c(C(=O)Nc2cccc(C(F)(F)F)c2)cc(-c2ccccc2)n1CCCN1CCOCC1 [HC 067047]
- solubility [1]: only soluble in DMSO or alcohols

Compound: CCCC(CCC)C(=O)O [Valproic acid]
- increase of reprogramming efficiency over the four transcription factor method [2]: 100 fold

Compound: GsMTX4
- PI genes expression (EF cells [3]; GsMTX4, 16 hours): responded like that observed in the study of fresh spleen cells
- PI genes expression (EF cells [3]; GsMTX4, day 3): found activated
- solubility [1]: water soluble
- PI genes expression [4]: resembled to that of fresh bone marrow cells
- C/EBPα expression (bone marrow cells): activated prominently
- FOXP1 (non-PI gene) expression change (bone marrow cells): the expression change was small
- IRF8 (non-PI gene) expression change (bone marrow cells): the expression change was small
- RUNX1 expression (bone marrow cells): activated prominently
- Sox2 expression (bone marrow cells): activated prominently
- Oct4 message compared with the control cells (bone marrow cells; 37° C., polystyrene surface): greater than 100 times
- PI genes expression (spleen cells; GsMTX4, 16 hours): consistently repressed
- PI genes expression (spleen cells; GsMTX4, day 3): activation of the PI genes was significantly observed

Compound: methyl-β-cyclodextrin [MβCD]
- appearance of novel-phenotype cells (Human PBMC): observed novel-phenotype cells
- efficiency of generating stem cell-like / differentiated cells (EF cells [5]; EF cells): greater efficiency than that of the hydrogel only
- sphere formation on hydrogel (EF cells [5]; MβCD, then low pascal hydrogels (1.7, 3.2, 7.4 kpa), O/N culture): formation of various size spheres were observed
- time to detection of un-spliced PI gene messages after cholesterol depletion (EF cells [6]; MβCD-treated EF cells attached to dish bottom): ≤ 24 h
- presence of spliced PI gene messages (EF cells [6]; MβCD-treated EF cells attached to dish bottom, day 1, 4, 7): present only in the cells cultured 7 days
- messages for Oct4, Nanog, and Sox2 at predicted sizes in bottom-adhered cells (EF cells [6]; MβCD-treated, hydrogel-casted petri dishes, 7 days): significant messages
- PI genes expression in response to GsMTX4 after MβCD treatment (spleen cells; 37° C. MβCD treatment, then GsMTX4 O/N culture): activation of PI genes
